The record followed here is patent US20100119599A1 (ARCHER PHARMACEUTICALS, INC., priority 2006, published 2010).

One test relates to Aβ1-40. In words: Measurement of Aβ1-40 in culture medium of 7W WT APP751 CHO cells by ELISA.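 As to all read-outs here: 5 µM test compound but RI-coded compounds at 10 µM for 24 hours.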 The class given is cell-based, Chinese hamster. The following applies: for Aβ1-40 (% of control): CHO cells that overexpress APP751, zero = below the detection limit of the assay; for activity at 5 µM: Cricetulus griseus, 5 μM test compound, CHO cells stably transfected with human APP751, culture medium, ELISA, control DMSO.

In another test the test system is Aβ1-42. In words: Measurement of Aβ1-42 in culture medium of 7W WT APP751 CHO cells by ELISA.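 As to Aβ1-42 (% of control): 5 µM test compound but RI-coded compounds at 10 µM for 24 hours.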 It counts as cell-based, Chinese hamster. The following applies: for Aβ1-42 (% of control): CHO cells that overexpress APP751, zero = below the detection limit of the assay; for activity at 5 µM: Cricetulus griseus, 5 μM test compound, CHO cells stably transfected with human APP751, culture medium, ELISA, control DMSO. On the technique in general: An ELISA detects its analyte on a solid surface through an enzyme-linked reagent.

Setting [1] is: Table 1, 0 = no detectable amount.
Setting [2] is: Table 1, 0 = no detectable amount, read-out: Aβ1-42 (% of control).
Where [3] appears, read: Table 3, read-out: Aβ-42 (% of control).

Structures are written as SMILES. Where two headings read alike, the source gives them in different places.

For `CCOC(=O)C1=CN(c2cc(C)ccc2C)C=C(C(=O)OCC)C1c1ccc(OCC)c(OC)c1` [ST052471, ethyl 1-(2,5-dimethylphenyl)-5-(ethoxycarbonyl)-4-(4-ethoxy-3-methoxyphenyl)-1,4-dihydropyridine-3-carboxylate], the “Aβ1-40 (% of control)” value with Aβ1-40 is listed as 34.26 % of control. Further, in the test with Aβ1-42, the “Aβ1-42 (% of control)” value is 57.75 % of control.

Consider `CCOC(=O)C1=CN(c2cc(C)ccc2C)C=C(C(=O)OCC)C1c1cc(OC)c(OC)cc1OC` [ST052474, ethyl 1-(2,5-dimethylphenyl)-5-(ethoxycarbonyl)-4-(2,4,5-trimethoxyphenyl)-1,4-dihydropyridine-3-carboxylate], for which, in the test on Aβ1-40, the “Aβ1-40 (% of control)” value was 5.404 % of control. The “Aβ1-42 (% of control)” value in the test with Aβ1-42 is 3.498 % of control.

As to `CCOC(=O)C1=CN(c2cc(C)ccc2C)C=C(C(=O)OCC)C1c1ccc(OC)c(OC)c1OC` [ST052487, ethyl 1-(2,5-dimethylphenyl)-5-(ethoxycarbonyl)-4-(2,3,4-trimethoxyphenyl)-1,4-dihydropyridine-3-carboxylate], in the test on Aβ1-40, the “Aβ1-40 (% of control)” value is on record as 11.56 % of control. In addition, the “Aβ1-42 (% of control)” value with Aβ1-42 is recorded as 15.1 % of control.

As for `CCOC(=O)C1=CN(c2cc(C)ccc2C)C=C(C(=O)OCC)C1c1ccccc1OCC` [ST052488, ethyl 1-(2,5-dimethylphenyl)-5-(ethoxycarbonyl)-4-(2-ethoxyphenyl)-1,4-dihydropyridine-3-carboxylate], the “Aβ1-40 (% of control)” value with Aβ1-40 is given as 60.3 % of control. Further, the “Aβ1-42 (% of control)” value in the test with Aβ1-42 is 57.75 % of control.

As to `CCOC(=O)C1=CN(c2cc(C)ccc2C)C=C(C(=O)OCC)C1c1cc(OC)c(OC)c(OC)c1` [ST052491, ethyl 1-(2,5-dimethylphenyl)-5-(ethoxycarbonyl)-4-(3,4,5-trimethoxyphenyl)-1,4-dihydropyridine-3-carboxylate], the “Aβ1-40 (% of control)” value in the test on Aβ1-40 is on record as 70.29 % of control. In addition, the “Aβ1-42 (% of control)” value with Aβ1-42 is given as 28.35 % of control.

On to `COC(=O)C1=C(C)NC2=C(C(=O)CC(c3cccs3)C2)C1c1ccc(C(F)(F)F)cc1` (stereo not drawn) [ST052493, methyl 2-methyl-5-oxo-7-(2-thienyl)-4-[4-(trifluoromethyl)phenyl]-1,4,6,7,8-pentahydroquinoline-3-carboxylate], for which the values for the activity at 5 µM in the test with Aβ1-40 (setting [1]) and in the test on Aβ1-42 (setting [2]) were 39.9% and 57.1%, respectively.

As to `CCCCOC(=O)C1=C(C)NC2=C(C(=O)CC(C)(C)C2)C1c1cccc(I)c1` (stereo not drawn) [ST056056, butyl 4-(3-iodophenyl)-2,7,7-trimethyl-5-oxo-1,4,6,7,8-pentahydroquinoline-3-carboxylate], the values for the activity at 5 µM in the test with Aβ1-40 (setting [1]) and in the test on Aβ1-42 (setting [2]) were 6.56% and 12.3%, respectively.

Regarding `N[C@@H](Cn1ccc(=O)c(O)c1)C(=O)O` [ST056312, (2S)-2-amino-3-(3-hydroxy-4-oxohydropyridyl)propanoic acid], the activity at 5 µM with Aβ1-40 (Table 3) was determined as 70.7%; in the test on Aβ1-42 (setting [3]), 37.1%.

In the case of `CCOC(=O)C1=C(C)NC(C)=C(C(=O)OC)C1c1ccc(Br)cc1` (stereo not drawn) [ST063245, ethyl 4-(4-bromophenyl)-5-(methoxycarbonyl)-2,6-dimethyl-1,4-dihydropyridine-3-carboxylate], the “Aβ1-40 (% of control)” value with Aβ1-40 is recorded as 8.423 % of control. For the same compound, in the test on Aβ1-42, the “Aβ1-42 (% of control)” value is reported as 0 % of control.

As to `N#CC(C#N)=CC=C1C=CN(Cc2ccccc2)C=C1` [ST208051, {2-[1-benzyl-4-hydropyridylidene]ethylidene}methane-11-dicarbonitrile], the activity at 5 µM with Aβ1-40 (Table 3) is 57.1%; in the test on Aβ1-42 (setting [3]) it was 75%.

Take `COC(=O)C1=C(C)NC(C)=C(C(=O)OC)C1c1ccc(Br)cc1` [ST208633, methyl 4-(4-bromophenyl)-5-(methoxycarbonyl)-2,6-dimethyl-1,4-dihydropyridine-3-carboxylate]: the “Aβ1-40 (% of control)” value with Aβ1-40 is 9.12 % of control. Besides, the “Aβ1-42 (% of control)” value in the test with Aβ1-42 is 0 % of control.

As for `COC(=O)C1=C(C)NC(C)=C(C(=O)OC)C1c1cccc(Br)c1` [ST208634, methyl 4-(3-bromophenyl)-5-(methoxycarbonyl)-2,6-dimethyl-1,4-dihydropyridine-3-carboxylate], in the test with Aβ1-40, the “Aβ1-40 (% of control)” value is recorded as 80.5 % of control. In addition, the “Aβ1-42 (% of control)” value with Aβ1-42 is 32.51 % of control.

Turning to `CCOC(=O)C1=C(C)NC2=C(C(=O)CCC2)C1c1ccc(Br)cc1` (stereo not drawn) [ST211289, ethyl 4-(4-bromophenyl)-2-methyl-5-oxo-1,4,6,7,8-pentahydroquinoline-3-carboxylate], the activity at 5 µM with Aβ1-40 (setting [1]) was found to be 89.1%; in the test with Aβ1-42 (setting [2]), 63.6%.

`CCOC(=O)C1=C(C)NC(C)=C(C(=O)OCC)C1c1c(Cl)cccc1Cl` [ST211423, ethyl 4-(2,6-dichlorophenyl)-5-(ethoxycarbonyl)-2,6-dimethyl-1,4-dihydropyridine-3-carboxylate]: the “Aβ1-40 (% of control)” value with Aβ1-40 is on record as 2.731 % of control. Also, in the test on Aβ1-42, the “Aβ1-42 (% of control)” value is 0 % of control.

Regarding `CCOC(=O)C1=C(C)NC(C)=C(C(=O)OC)C1c1cc(Cl)cc(Cl)c1OC` (stereo not drawn) [ST211424, methyl 4-(3,5-dichloro-2-methoxyphenyl)-5-(ethoxycarbonyl)-2,6-dimethyl-1,4-dihydropyridine-3-carboxylate], in the test on Aβ1-40, the “Aβ1-40 (% of control)” value was 62.46 % of control. Also, the “Aβ1-42 (% of control)” value in the test on Aβ1-42 is on record as 91.29 % of control.

Take `CCOC(=O)C1=C(C)NC(C)=C(C(=O)OCC)C1c1ccc(F)cc1` [ST211500, ethyl 5-(ethoxycarbonyl)-4-(4-fluorophenyl)-2,6-dimethyl-1,4-dihydropyridine-3-carboxylate]: in the test with Aβ1-40, the “Aβ1-40 (% of control)” value is reported as 20.67 % of control. Besides, the “Aβ1-42 (% of control)” value with Aβ1-42 is recorded as 19.53 % of control.

`N#CC1=C(N)n2c(s/c(=C/c3ccncc3)c2=O)=C(C#N)C1c1ccncc1` (stereo not drawn) [ST211853, 5-amino-3-oxo-7-(4-pyridyl)-2-(4-pyridylmethylene)-4,7-dihydro-1,3-thiazolidino[3,2-a]pyridine-6,8-dicarbonitrile]: in the test with Aβ1-40, the “Aβ1-40 (% of control)” value is listed as 49 % of control. Moreover, the “Aβ1-42 (% of control)” value with Aβ1-42 is reported as 18.37 % of control.

Regarding `CCOC(=O)C1=C(C)NC2=C(C(=O)CCC2)C1c1cc2c(cc1[N+](=O)[O-])OCO2` (stereo not drawn) [ST212479, ethyl 2-methyl-4-(6-nitro(2H-benzo[d]1,3-dioxolan-5-yl))-5-oxo-1,4,6,7,8-pentahydroquinoline-3-carboxylate], the activity at 5 µM is 60.2% with Aβ1-40 (setting [1]) and 29.3% in the test with Aβ1-42 (setting [2]).

For `CCOC(=O)C1=C(C)NC2=C(C(=O)CCC2)C1c1ccc(OCC)cc1` (stereo not drawn) [ST213781, ethyl 4-(4-ethoxyphenyl)-2-methyl-5-oxo-1,4,6,7,8-pentahydroquinoline-3-carboxylate], the activity at 5 µM with Aβ1-40 (setting [1]) was found to be 66.8%; in the test with Aβ1-42 (setting [2]), 81.3%.

For `CCCCOC(=O)C1=C(C)NC2=C(C(=O)CC(C)(C)C2)C1c1ccc(Cl)c(Cl)c1` (stereo not drawn) [ST215419, butyl 4-(3,4-dichlorophenyl)-2,7,7-trimethyl-5-oxo-1,4,6,7,8-pentahydroquinoline-3-carboxylate], the activity at 5 µM in the test on Aβ1-40 (setting [1]) and with Aβ1-42 (setting [2]) was 0% in each case.

For `COc1ccc(C2C(C(=O)OC(C)C)=C(C)NC3=C2C(=O)CC(C)(C)C3)cc1Br` (stereo not drawn) [ST215449, methylethyl 4-(3-bromo-4-methoxyphenyl)-2,7,7-trimethyl-5-oxo-1,4,6,7,8-pentahydroquinoline-3-carboxylate], the activity at 5 µM in the test on Aβ1-40 (setting [1]) worked out at 24.5%; in the test with Aβ1-42 (setting [2]), 25.7%.

Take `CCCCOC(=O)C1=C(C)NC2=C(C(=O)CC(C)(C)C2)C1c1ccccc1[N+](=O)[O-]` (stereo not drawn) [ST215464, butyl 2,7,7-trimethyl-4-(2-nitrophenyl)-5-oxo-1,4,6,7,8-pentahydroquinoline-3-carboxylate]: the values for the activity at 5 µM with Aβ1-40 (setting [1]) and in the test with Aβ1-42 (setting [2]) were 62.7% and 90.7%, respectively.

Turning to `CCOC(=O)C1=C(N)n2c(s/c(=C/c3ccccc3Cl)c2=O)=C(C#N)C1c1ccccc1Cl` (stereo not drawn) [ST215651, ethyl 5-amino-7-(2-chlorophenyl)-2-[(2-chlorophenyl)methylene]-8-cyano-3-oxo-4,7-dihydro-1,3-thiazolidino[3,2-a]pyridine-6-carboxylate], in the test with Aβ1-40, the “Aβ1-40 (% of control)” value is recorded as 80.92 % of control. In addition, in the test on Aβ1-42, the “Aβ1-42 (% of control)” value is recorded as 42.3 % of control.

In the case of `Cc1ccc(/C=c2/sc3n(c2=O)C(N)=C(C#N)C(c2ccc(C)cc2)C=3C#N)cc1` (stereo not drawn) [ST215709, 5-amino-7-(4-methylphenyl)-2-[(4-methylphenyl)methylene]-3-oxo-4,7-dihydro-1,3-thiazolidino[3,2-a]pyridine-6,8-dicarbonitrile], the “Aβ1-40 (% of control)” value with Aβ1-40 is reported as 55.91 % of control. For the same compound, the “Aβ1-42 (% of control)” value in the test on Aβ1-42 was 78.43 % of control.

As for `COc1cccc(/C=c2/sc3n(c2=O)C(N)=C(C#N)C(c2cccc(OC)c2)C=3C#N)c1` (stereo not drawn) [ST215713, 5-amino-7-(3-methoxyphenyl)-2-[(3-methoxyphenyl)methylene]-3-oxo-4,7-dihydro-1,3-thiazolidino[3,2-a]pyridine-6,8-dicarbonitrile], the “Aβ1-40 (% of control)” value in the test on Aβ1-40 is on record as 69.2 % of control. The “Aβ1-42 (% of control)” value in the test with Aβ1-42 is on record as 80.48 % of control.

Take `CCCCOC(=O)C1=C(C)NC2=C(C(=O)CC(C)(C)C2)C1c1cc2c(cc1[N+](=O)[O-])OCO2` (stereo not drawn) [ST216053, butyl 2,7,7-trimethyl-4-(6-nitro(2H-benzo[d]1,3-dioxolen-5-yl))-5-oxo-1,4,6,7,8-pentahydroquinoline-3-carboxylate]: the activity at 5 µM in the test with Aβ1-40 (setting [1]) came to 22.2%; in the test with Aβ1-42 (setting [2]), 6.37%.

Turning to `CCCCCOC(=O)C1=C(C)NC2=C(C(=O)CC(C)(C)C2)C1c1ccc(Cl)c(Cl)c1` (stereo not drawn) [ST216061, pentyl 4-(3,4-dichlorophenyl)-2,7,7-trimethyl-5-oxo-1,4,6,7,8-pentahydroquinoline-3-carboxylate], the activity at 5 µM in the test with Aβ1-40 (setting [1]) and with Aβ1-42 (setting [2]) was 0% each time.
